Assay results from US8492521B2, “Oxidative stress responsive apoptosis inducing protein eIF5A” (priority 2008, dated 2013).

Tested on: rat myocardial ischemia/reperfusion injury
Test: Rat myocardial ischemia/reperfusion injury, extent of myocardial infarction (TTC staining)
Assay type: in vivo
Details: 1 mg/kg everyday, peritoneal, five days to the day before; 30 min ischemia, 24 hours reperfusion; control group approx. 35.6%
Method: Rats (male, 250 to 280 g) were subjected to coronary artery ligation according to J. Pathol. 180, 305-310 (1996). Briefly, rats were anesthetized with sodium pentobarbital (40 mg Kg^−1, intraperitoneally), intubated, and ventilated with room air (tidal volume, 20 ml/Kg, […]) with a respirator (SN-480-7, Shinano Manufacturing Co., Ltd., Tokyo, Japan). After lateral thoracotomy and pericardiectomy, a 6-0 silk stitch was placed near the intramyocardial location of the left coronary artery beneath the left atrial appendage. Coronary artery occlusion was performed by pressing a short length of tube over the ends of the suture and clamping it firmly against the heart. Reperfusion was achieved by removing the clamp. The standard limb lead II electrocardiogram was monitored continuously. The ischemia and reperfusion of the regional myocardium were confirmed by following the changes of the ST segment level on the electrocardiogram and observing the change in the color of the myocardium.
eIF5A is deoxyhypusinated by deoxyhypusine synthase (DHS) in the cytoplasm (deoxyhypusine eIF5A) and then hypusinated by deoxyhypusine hydroxylase (DOHH) (hypusinated eIF5A). eIF5A is further secreted extracellularly by an oxidative stress stimulus as secreted eIF5A and acquire the apoptosis-inducing activity. […]

## N=C(N)NCCCCCCCN [GC7, N1-guanyl-1,7-diaminoheptane]
  extent of myocardial infarction: approx. 13.4%
